Results on 17 compounds are retold here after patent US20070299114A1, “Biaryl Derivatives” (Shionogi & Co., Ltd., priority 2004, published 2007).

A word on the IC50: it is the point on the concentration scale where inhibition reaches its midpoint.

One assay concerns anti-OVA IgE antibody. The experiment in a line: suppression of IgE antibody production to anti-ovalbumin (OVA) in immunized mice, PCA titer. Type of assay: in vivo. The conditions noted are these: anti-OVA IgE antibody value (PCA titer, Log2 of maximum serum dilution rate) in BALB/c mice. Here is the method:
Effect of Suppression of IgE Antibody Production to Anti-Ovalbumin (OVA)
BALB/c mice (female, 8 to 10 week old) purchased from Japan Charles River (Kanagawa) and Wistar rats (female, 8 to 10 week old) purchased from Japan SLC (Sizuoka) were used.
BALB/c mice were immunized by intraperitoneally injecting 0.2 ml of a solution obtained by suspending 2 μg of ovalbumin (OVA) and an aluminum hydroxide gel (1 mg) in a brine. After ten days, blood was taken from a heart, the serum was separated, and an IgE antibody value was measured.
[…] Administration was performed from immunization date to the day before blood collection for consecutive 10 days.
4) Measurement of Anti-OVA IgE Antibody Value (PCA Titer)
The resulting mouse serum was prepared into a 2-fold dilution series with a brine, and each 50 μl of this was subcutaneously injected into a back of a pre-shaved Wistar rat. After 24 hours, 0.5 ml of a brine containing 1 mg of OVA and 5 mg of an Evans Blue dye was intravenously injected to induce a passive skin anaphylactic reaction (PCA).

The subject of another assay is Human lymphocyte. Put plainly: suppression of IgE antibody production in human lymphocyte stimulated with anti-human CD40 antibody and IL-4. The class given is cell-based. The conditions noted are these: 216 h; IgE antibody production by human lymphocyte, anti-human CD40 antibody + IL-4, cultured for 9 days, ELISA. Here is the method: Effect of Suppressing Antibody Production Using Human Lymphocyte
1) Human Peripheral Blood
Human peripheral blood was collected with a plastic syringe containing heparin (final concentration 1.5%) from a vein of an adult healthy person, and subjected to collection of lymphocyte immediately after blood collection.
To the RPMI medium (Sigma) were added 10% of fetal bovine serum, (HyClone Lab.) which had been immobilized at 56° C. for 30 minutes, penicillin (100 units/ml) and streptomycin (100 μg/ml) (Invitrogen), which was used.
The present compound was dissolved in dimethyl sulfoxide (Nakalai Tesque) to 2 mg/ml and, thereafter, the solution was diluted with a medium to a final concentration of 0.01 pg/ml to 10 μg/ml.
Human peripheral blood was mixed with an equal amount of PBS-10 mM EDTA, 10 ml of this was overlaid on a tube containing 3 ml of Ficoll-Paque Plus (Pharmacia Biotech), followed by centrifugation at room temperature and 300×g for 30 minutes to obtain a lymphocyte layer. The collected cell suspension was centrifugation-washed with a sterilized Hanks's balanced salt solution (Invitrogen), passed through a nylon mesh, and centrifugation-washed with a medium, which was used in an experiment as human lymphocyte.
5) Inducement of IgE Antibody Production Due to B cell Stimulation
Human lymphocyte was seeded on a 96-well culturing plate (Sumitomo Bakelite) to 2×10^5 cells per well, and the compound, an anti-human CD40 antibody (Pharmingen, 2 μg/ml), and human recombinant interleukin-4 (IL-4) (PEPROTECH, 0.1 μg/ml) were added, followed by culturing at 37° C. under the presence of 5% CO2 (0.2 ml/well). After cultured for 9 days, an amount of an antibody produced in the supernatant was quantitated by a specific ELISA method.
6) Quantitation of IgE Antibody
For quantitating IgE, a commercially available kit, MESACUP IgE Test (Medical & Biological Laboratories Co., Ltd.) was used. An experimental method was according to the manual, an experiment was performed duplicately, and an average was obtained.
A general note: ELISA stands for enzyme-linked immunosorbent assay.

The mark [1] stands for this setting: dose 40 mg/kg orally for consecutive 10 days.
Where [2] appears, read: dose 10 mg/kg orally for consecutive 10 days.

Take `COc1cc(-c2ccc(NC(C)C)cc2F)c(OC)cc1/C(C)=C/C(=O)NC(C)C` [Compound 40]: in the assay on anti-OVA IgE antibody (setting [1]), the PCA stood at 1.3. Besides, the IC50 in the assay with Human lymphocyte came out at 3.7 ng/mL.

`C/C(=C\c1cc(C)c(-c2ccc3[nH]ccc3c2)cc1C)C(=O)NC(C)C` [Compound 76] registered a PCA in the assay with anti-OVA IgE antibody (setting [2]) of 4.3. In the assay on Human lymphocyte, the IC50 is 1.6 ng/mL.

Regarding `C/C(=C\c1cc(C)c(-c2ccc(NC(C)C)cc2)cc1C)C(=O)NC1CCCCC1` [Compound 80], the PCA in the assay on anti-OVA IgE antibody (setting [2]) is on record as 5.3. The IC50 in the assay on Human lymphocyte came out at 4.6 ng/mL.

In the assay on anti-OVA IgE antibody (setting [2]), `CC/C(=C\c1cc(C)c(-c2ccc(NC(C)C)cc2)cc1C)C(=O)NC1CCCC1` [Compound 142] displayed a PCA of 0.0. In the assay with Human lymphocyte, the IC50 is 8.4 ng/mL.

`Cc1cc(-c2ccc(NC3CCCC3)cc2)c(C)cc1/C=C(\F)C(=O)NCCC(=O)O` [Compound 408]: the PCA with anti-OVA IgE antibody (setting [1]) is on record as 0<. In addition, the IC50 in the assay on Human lymphocyte was 8 ng/mL.

For `C/C(=C\c1c(C)c(C)c(-c2ccc(NC(C)C)cc2F)c(C)c1C)C(=O)N[C@H](C)C(=O)O` [Compound 420], in the assay with anti-OVA IgE antibody (setting [1]), the PCA is on record as 0<. Moreover, in the assay on Human lymphocyte, the IC50 was 39 ng/mL.

Consider `C/C(=C\c1c(C)c(C)c(-c2ccc(NC3CCCC3)cc2F)c(C)c1C)C(=O)NC1CCCC1` [Compound 459], for which the PCA in the assay with anti-OVA IgE antibody (setting [2]) is 2.7. In the assay on Human lymphocyte, the IC50 worked out at 0.8 ng/mL.

As for `C/C(=C\c1c(C)c(F)c(-c2ccc(NC(C)C)nc2)c(C)c1F)C(=O)NC(C)C` [Compound 484], in the assay with anti-OVA IgE antibody (setting [1]), the PCA is 0<. Besides, in the assay with Human lymphocyte, the IC50 was determined as 9.3 ng/mL.

With `C/C(=C\c1c(C)c(F)c(-c2ccc(NC(C)C)cc2)c(C)c1F)C(=O)O` [Compound 486], the PCA with anti-OVA IgE antibody (setting [2]) is 0<. Besides, the IC50 in the assay on Human lymphocyte worked out at 13.5 ng/mL.

The compound `CC/C(=C\c1c(C)c(F)c(-c2ccc(NC(C)C)cc2)c(C)c1F)C(=O)O` [Compound 493] registered a PCA in the assay with anti-OVA IgE antibody (setting [2]) of 4.0. Moreover, the IC50 with Human lymphocyte was determined as 9.4 ng/mL.

`CC/C(=C\c1c(C)c(F)c(-c2ccc(NC(C)C)cc2)c(C)c1F)C(=O)N[C@H](C)C(=O)O` [Compound 495] registered a PCA in the assay with anti-OVA IgE antibody (setting [2]) of 4.7. Moreover, the IC50 in the assay with Human lymphocyte is 41 ng/mL.

Compound `COc1c(C)c(-c2ccc(NC(C)C)cc2)c(OC)c(C)c1/C=C(\C)C(=O)O` [Compound 526] had a PCA with anti-OVA IgE antibody (setting [1]) of 2.7. The half-inhibitory concentration (IC50) with Human lymphocyte was 0.9 ng/mL.

For `COc1c(C)c(-c2ccc(NC3CCCCC3)cc2)c(OC)c(C)c1/C=C(\C)C(=O)O` [Compound 559], the PCA with anti-OVA IgE antibody (setting [2]) was 4. The IC50 with Human lymphocyte was 7.2 ng/mL.

In the case of `COc1c(C)c(-c2ccc(NC3CCCCC3)cc2)c(OC)c(C)c1/C=C(\C)C(=O)N[C@H](C)C(=O)O` [Compound 562], the PCA in the assay with anti-OVA IgE antibody (setting [1]) was 0<. Moreover, in the assay on Human lymphocyte, the IC50 is 8.4 ng/mL.

Take `COc1c(C)c(-c2ccc(NCc3ccc(C)o3)cc2)c(OC)c(C)c1/C=C(\C)C(=O)O` [Compound 571]: the PCA in the assay on anti-OVA IgE antibody (setting [2]) stood at 1.3. Further, in the assay with Human lymphocyte, the IC50 turned out to be 6.4 ng/mL.

Consider `CCC/C=C/CNc1ccc(-c2c(C)c(OC)c(/C=C(\C)C(=O)O)c(C)c2OC)cc1` [Compound 573], for which the PCA in the assay on anti-OVA IgE antibody (setting [2]) was 0<. For the same compound, the IC50 in the assay on Human lymphocyte was 6.6 ng/mL.

The compound `CC/C=C/CNc1ccc(-c2c(C)c(OC)c(/C=C(\C)C(=O)O)c(C)c2OC)cc1` [Compound 585] gave a PCA in the assay on anti-OVA IgE antibody (setting [2]) of 1.0. Besides, the IC50 in the assay on Human lymphocyte is 4.8 ng/mL.
